Laboratory results reported in US9637501B2, “Pyridin-3-yl acetic acid macrocycles as inhibitors of human immunodeficiency virus replication” (priority 2014, dated 2017).
Where two headings read alike, the source gives them in different places.

Assays:
[1] = rcm bond, Hoveyda-Grubbs catalyst 2nd generation, 1,2-dichloroethane, 3 steps
[2] = tested on: recombinant NL-RLuc virus (NL4-3 with Renilla Luciferase gene) in MT-2 cells; assay: Inhibition of HIV replication (NL-RLuc virus, luciferase readout in MT-2 cells); type: cell-based; conditions: 5 days of incubation, 10% FBS
From the text: Inhibition of HIV Replication:
A recombinant NL-RLuc proviral clone was constructed in which a section of the nef gene from NL4-3 was replaced with the Renilla Luciferase gene. This virus is fully infectious and can undergo multiple cycles of replication in cell culture. In addition, the luciferous reporter provides a simple and easy method for quantitating the extent of virus growth and consequently, the antiviral activity of test compounds. The plasmid pNLRLuc contains the proviral NL-Rluc DNA cloned into pUC18 at the PvuII site. The NL-RLuc virus was prepared by transfection of 293T cells with the plasmid pNLRLuc. Transfections were performed using the LipofectAMINE PLUS kit from Invitrogen (Carlsbad, Calif.) according to the manufacturer and the virus generated was titered in MT-2 cells. For susceptibility analyses, the titrated virus was used to infect MT-2 cells in the presence of compound, and after 5 days of incubation, cells were processed and quantitated for virus growth by the amount of expressed luciferase. Assay media was RPMI 1640 supplemented with 10% heat inactivated fetal bovine serum (FBS), 100 units/ml penicillin G/100 units/ml streptomycin, 10 mM HEPES buffer pH 7.55 and 2 mM L-glutamine. The results from at least 2 experiments were used to calculate the EC50 values. Luciferase was quantitated using the Dual Luciferase kit from Promega (Madison, Wis.). Susceptibility of viruses to compounds was determined by incubation in the presence of serial dilutions of the compound. The 50% effective concentration (EC50) was calculated by using the exponential form of the median effect equation where (Fa)=1/[1+(ED50/drug conc.)^m] (Johnson V A, Byington R T. Infectivity Assay. In Techniques in HIV Research. ed. Aldovini A, Walker B D. 71-76. New York: Stockton Press. 1990).

Compound	EC50 [2] [nM]	EC50 ([2]; Renilla, NL43, 120 h) [nM]	further results
Cc1nc(C)c([C@H](OC(C)(C)C)C(=O)O)c2c1-c1ccc(cc1)OC(c1ccc(Cl)cc1)CCCCOC1(C)CCN2CC1 (stereo partly shown)	–	–	ring closure, yield of all isomers ([1]; from C=CCOC1(C)CCN(c2c(-c3ccc(OC(CC=C)c4ccc(Cl)cc4)cc3)c(C)nc(C)c2[C@H](OC(C)(C)C)C(=O)OCC)CC1, 6.25 mM, 70.0 °C, 0.5 h): 59.1%
Cc1nc(C)c([C@H](OC(C)(C)C)C(=O)O)c2c1-c1ccc(cc1)OC(c1ccccc1)CCCCOC1(C)CCN2CC1 (stereo partly shown)	–	–	ring closure, yield of all isomers ([1]; from C=CCOC1(C)CCN(c2c(-c3ccc(OC(CC=C)c4ccccc4)cc3)c(C)nc(C)c2[C@H](OC(C)(C)C)C(=O)OCC)CC1, 70.0 °C, 1.0 h): 63.8%
Cc1nc(C)c([C@H](OC(C)(C)C)C(=O)O)c2c1-c1ccc(cc1)OC(c1ccccc1)CCCCOC1(C)CCN2CC1 (single isomer, unassigned) [Example 3]	854	–	–
Cc1nc(C)c([C@H](OC(C)(C)C)C(=O)O)c2c1-c1ccc(cc1)OC(c1ccccc1)CCCCOC1(C)CCN2CC1 (single isomer, unassigned) [Example 4]	349	–	–
Cc1nc(C)c([C@H](OC(C)(C)C)C(=O)O)c2c1-c1ccc(cc1)OC(c1ccc(Cl)cc1)CCCCOC1(C)CCN2CC1 (single isomer, unassigned) [Example 5]	–	466	–
Cc1nc(C)c([C@H](OC(C)(C)C)C(=O)O)c2c1-c1ccc(cc1)OC(c1ccc(Cl)cc1)CCCCOC1(C)CCN2CC1 (single isomer, unassigned) [Example 6]	496	–	–
Cc1cc(CN2CCCCCCOC3(C)CCN(CC3)c3c(c(C)nc(C)c3[C@H](OC(C)(C)C)C(=O)O)-c3ccc(cc3)C2)ccc1F [Example 1, (2S)-2-(tert-Butoxy)-2-{13-[(4-fluoro-3-methylphenyl)methyl]-4,6,21-trimethyl-20-oxa-1,5,13-triazatetracyclo[19.2.2.2^8,11.0^2,7]heptacosa-2,4,6,8,10,26-hexaen-3-yl}acetic acid]	–	87	ring closure, yield of all isomers ([1]; from C=CCCCN(Cc1ccc(-c2c(C)nc(C)c([C@H](OC(C)(C)C)C(=O)OCC)c2N2CCC(C)(OCC=C)CC2)cc1)Cc1ccc(F)c(C)c1, 70.0 °C, 0.83 h): 58.9%
Cc1cc(CN2CCCCCOC3(C)CCN(CC3)c3c(c(C)nc(C)c3[C@H](OC(C)(C)C)C(=O)O)-c3ccc(cc3)C2)ccc1F [Example 2, (2S)-2-(tert-Butoxy)-2-{13-[(4-fluoro-3-methylphenyl)methyl]-4,6,20-trimethyl-19-oxa-1,5,13-triazatetracyclo[18.2.2.2^8,11.0^2,7]hexacosa-2,4,6,8,10,25-hexaen-3-yl}acetic acid]	–	249	ring closure, yield of all isomers ([1]; from C=CCOC1(C)CCN(c2c(-c3ccc(CN(CC/C=C\CC)Cc4ccc(F)c(C)c4)cc3)c(C)nc(C)c2[C@H](OC(C)(C)C)C(=O)OCC)CC1, 4.35 mM, 75.0 °C, 1.33 h): 17.2%
